Test [1] deals with SARS-CoV-2. Nature of the test: Antiviral activity VSV-S pseudotyped SARS-CoV-2 Wuhan-Hu-1 harboring MN908947 mutant infected in human A549-ACE2 cells assessed as reduction in viral production at 10 uM preincubated with virus for 1 hrs followed by cell infection for 1 hrs and measured 24 hrs after replacement with fresh media with compound relative to control. The class given is functional, Severe acute respiratory syndrome coronavirus 2. Details: scale not given: the % may be the effect or the level left. Particulars: time 26 hrs.

The test system of test [2] is SARS-CoV-2. Nature of the test: Antiviral activity VSV-S pseudotyped SARS-CoV-2 Wuhan-Hu-1 harboring MN908947 mutant infected in Green monkey VeroE6/TMPRSS2 cells assessed as reduction in viral production at 10 uM preincubated with virus for 1 hrs followed by cell infection for 1 hrs and measured 24 hrs after replacement with fresh media with compound relative to control. Format: functional, Severe acute respiratory syndrome coronavirus 2. The arrangement: scale not given: the % may be the effect or the level left. Particulars: time 26 hrs.

Each structure is given as a SMILES string.

Data on three molecules can be found in ChEMBL document CHEMBL5360617, “C-2 Thiophenyl Tryptophan Trimers Inhibit Cellular Entry of SARS-CoV-2 through Interaction with the Viral Spike (S) Protein” (J Med Chem, 2023).

With `O=C(CCOCCOCCOCCOCCC(=O)NCC(=O)NC(CCC(=O)NC(Cc1c(Sc2ccc([N+](=O)[O-])cc2)[nH]c2ccccc12)C(=O)O)(CCC(=O)NC(Cc1c(Sc2ccc([N+](=O)[O-])cc2)[nH]c2ccccc12)C(=O)O)CCC(=O)NC(Cc1c(Sc2ccc([N+](=O)[O-])cc2)[nH]c2ccccc12)C(=O)O)NCC(=O)NC(CCC(=O)NC(Cc1c(Sc2ccc([N+](=O)[O-])cc2)[nH]c2ccccc12)C(=O)O)(CCC(=O)NC(Cc1c(Sc2ccc([N+](=O)[O-])cc2)[nH]c2ccccc12)C(=O)O)CCC(=O)NC(Cc1c(Sc2ccc([N+](=O)[O-])cc2)[nH]c2ccccc12)C(=O)O` (stereo unspecified), the Activity with SARS-CoV-2 [1] is reported as above 98%; in the test on SARS-CoV-2 [2], above 89%.
The corresponding values for `NCCOCCOCCC(=O)NCC(=O)NC(CCC(=O)NC(Cc1c(Sc2ccc([N+](=O)[O-])cc2)[nH]c2ccccc12)C(=O)O)(CCC(=O)NC(Cc1c(Sc2ccc([N+](=O)[O-])cc2)[nH]c2ccccc12)C(=O)O)CCC(=O)NC(Cc1c(Sc2ccc([N+](=O)[O-])cc2)[nH]c2ccccc12)C(=O)O` (stereo unspecified) are above 98% and above 89%.
For the molecule `CCC(CC)COC(=O)[C@H](C)N[P@](=O)(OC[C@H]1O[C@@](C#N)(c2ccc3c(N)ncnn23)[C@H](O)[C@@H]1O)Oc1ccccc1`, the Activity in the test on SARS-CoV-2 [1] is reported as above 98%; with SARS-CoV-2 [2] it was above 89%.
